± gives the uncertainty stated by the source.
Assay: xn = mol fraction of the nth substance listed

Oc1ccc(Cl)cc1 + O=Cc1ccccc1
308.15 K, 101.33 kPa
Settings	viscosity [mPa·s]
x2 = 0.11	5.75 ± 0.092
x2 = 0.304	3.8 ± 0.058
x2 = 0.485	3.01 ± 0.044
x2 = 0.56	2.495 ± 0.036
x2 = 0.62	2.2 ± 0.031
x2 = 0.728	1.79 ± 0.024
x2 = 0.907	1.388 ± 0.018

CCOCCO + O=S1(=O)CCCC1
303.15 K
Settings	viscosity [mPa·s]
101 kPa, x2 = 0.0459	1.145 ± 0.013
101 kPa, x2 = 0.1045	0.887 ± 0.011
101 kPa, x2 = 0.1957	0.692 ± 0.008
101 kPa, x2 = 0.2957	0.877 ± 0.01
101 kPa, x2 = 0.3504	1.721 ± 0.02
101 kPa, x2 = 0.3966	2.176 ± 0.025
101 kPa, x2 = 0.4471	2.684 ± 0.031
101 kPa, x2 = 0.4987	3.644 ± 0.042
101 kPa, x2 = 0.5514	4.636 ± 0.053
101 kPa, x2 = 0.5999	5.66 ± 0.064
101 kPa, x2 = 0.6984	6.898 ± 0.077
101 kPa, x2 = 0.8002	8.224 ± 0.092
101 kPa, x2 = 0.8997	9.136 ± 0.1
101.33 kPa, x1 = 0.042	8.909 ± 0.13
101.33 kPa, x1 = 0.0712	7.997 ± 0.12
101.33 kPa, x1 = 0.109	7.117 ± 0.11
101.33 kPa, x1 = 0.1849	5.742 ± 0.088
101.33 kPa, x1 = 0.2899	4.443 ± 0.069
101.33 kPa, x1 = 0.3942	3.612 ± 0.056
101.33 kPa, x1 = 0.5561	2.759 ± 0.043
101.33 kPa, x1 = 0.6236	2.472 ± 0.038
101.33 kPa, x1 = 0.6586	2.349 ± 0.036
101.33 kPa, x1 = 0.7385	2.108 ± 0.033
101.33 kPa, x1 = 0.7622	2.027 ± 0.032
101.33 kPa, x1 = 0.8406	1.843 ± 0.029
101.33 kPa, x1 = 0.9162	1.688 ± 0.026
101.33 kPa, x1 = 0.9539	1.619 ± 0.025

CCOCCO + O=[N+]([O-])c1ccccc1
298.15 K, 101 kPa
Settings	viscosity [mPa·s]
x2 = 0.0476	1.852 ± 0.021
x2 = 0.1095	1.858 ± 0.021
x2 = 0.2104	1.873 ± 0.02
x2 = 0.3134	1.893 ± 0.019
x2 = 0.4103	1.916 ± 0.019
x2 = 0.4566	1.925 ± 0.019
x2 = 0.5011	1.932 ± 0.018
x2 = 0.5459	1.936 ± 0.018
x2 = 0.6004	1.94 ± 0.018
x2 = 0.7008	1.937 ± 0.017
x2 = 0.8017	1.921 ± 0.016
x2 = 0.8989	1.887 ± 0.015
x2 = 0.9525	1.853 ± 0.014

Cc1cccc(Cl)c1 + OC1CCCCC1
303.15 K, 101 kPa
Settings	viscosity [mPa·s]
x2 = 0.1126	5.006 ± 0.6
x2 = 0.222	9.158 ± 1.1
x2 = 0.3285	13.26 ± 1.6
x2 = 0.4321	17.37 ± 2.1
x2 = 0.533	21.44 ± 2.6
x2 = 0.6313	25.48 ± 3.1
x2 = 0.727	29.41 ± 3.6
x2 = 0.8203	33.31 ± 4
x2 = 0.9113	37.2 ± 4.5

CC(C)CCO + OCC(O)CO
viscosity [mPa·s], 100 kPa
Settings	x1 = 0.0692	x1 = 0.1425	x1 = 0.2195	x1 = 0.3027	x1 = 0.3954	x1 = 0.498	x1 = 0.6042	x1 = 0.7235	x1 = 0.8535
298.15 K	879.2 ± 43	810.7 ± 38	738.6 ± 34	660.6 ± 29	573.7 ± 24	477.4 ± 18	377.4 ± 13	265 ± 7.6	142.2 ± 2.6
303.15 K	583.7 ± 24	540.5 ± 22	494.2 ± 19	443.9 ± 16	387.3 ± 13	323.9 ± 10	257.5 ± 7.2	181.7 ± 4.1	97.82 ± 1.2
308.15 K	389.9 ± 14	363 ± 12	333.5 ± 11	301.1 ± 9.2	263.5 ± 7.5	220.7 ± 5.6	175.6 ± 3.8	123.8 ± 2	67.02 ± 0.49

CC(C)CCO + OCCCCO
viscosity [mPa·s], 100 kPa
Settings	x1 = 0.0812	x1 = 0.1634	x1 = 0.2525	x1 = 0.3428	x1 = 0.4555	x1 = 0.5459	x1 = 0.6484	x1 = 0.7582	x1 = 0.8761
298.15 K	67.45 ± 0.49	62.1 ± 0.39	56.19 ± 0.31	50.09 ± 0.26	42.34 ± 0.28	36.04 ± 0.23	28.79 ± 0.19	20.97 ± 0.14	12.53 ± 0.1
303.15 K	53.11 ± 0.28	49.29 ± 0.32	45.07 ± 0.29	40.5 ± 0.26	34.55 ± 0.23	29.64 ± 0.2	23.86 ± 0.16	17.53 ± 0.13	10.61 ± 0.09
308.15 K	42.18 ± 0.28	39.46 ± 0.26	36.34 ± 0.24	32.86 ± 0.21	28.33 ± 0.19	24.49 ± 0.17	19.94 ± 0.14	14.75 ± 0.11	9.039 ± 0.083

CC(C)CCO + OCCCO
viscosity [mPa·s], 100 kPa
Settings	x1 = 0.0679	x1 = 0.1388	x1 = 0.218	x1 = 0.3009	x1 = 0.4084	x1 = 0.4979	x1 = 0.6034	x1 = 0.7212	x1 = 0.8537
298.15 K	37.92 ± 0.25	35.56 ± 0.23	32.86 ± 0.21	29.98 ± 0.2	26.12 ± 0.17	22.84 ± 0.16	18.89 ± 0.13	14.42 ± 0.11	9.305 ± 0.084
303.15 K	30.13 ± 0.2	28.24 ± 0.19	26.14 ± 0.17	23.83 ± 0.16	20.79 ± 0.14	18.2 ± 0.13	15.09 ± 0.11	11.57 ± 0.094	7.532 ± 0.076
308.15 K	25.86 ± 0.17	24.27 ± 0.16	22.55 ± 0.15	20.66 ± 0.14	18.08 ± 0.13	15.91 ± 0.12	13.3 ± 0.1	10.25 ± 0.088	6.745 ± 0.073

CC(C)CCO + OCCO
viscosity [mPa·s], 100 kPa
Settings	x1 = 0.0538	x1 = 0.1127	x1 = 0.1769	x1 = 0.2492	x1 = 0.3333	x1 = 0.4312	x1 = 0.5385	x1 = 0.6667	x1 = 0.8167
298.15 K	17.29 ± 0.092	16.59 ± 0.091	15.84 ± 0.09	14.92 ± 0.088	13.82 ± 0.086	12.46 ± 0.084	10.93 ± 0.081	8.999 ± 0.076	6.622 ± 0.07
303.15 K	13.53 ± 0.081	13.1 ± 0.08	12.52 ± 0.08	11.8 ± 0.079	10.97 ± 0.077	9.889 ± 0.075	8.629 ± 0.073	7.087 ± 0.07	5.243 ± 0.066
308.15 K	11.48 ± 0.075	11.11 ± 0.075	10.72 ± 0.074	10.22 ± 0.074	9.549 ± 0.073	8.689 ± 0.072	7.683 ± 0.07	6.336 ± 0.068	4.792 ± 0.064

CCOCCO + OCCO
Settings	viscosity [mPa·s]
293.15 K, 101 kPa, x1 = 0.0582	18.48 ± 0.12
293.15 K, 101 kPa, x1 = 0.0952	16.68 ± 0.11
293.15 K, 101 kPa, x1 = 0.2037	11.81 ± 0.076
293.15 K, 101 kPa, x1 = 0.3098	7.965 ± 0.051
293.15 K, 101 kPa, x1 = 0.4062	5.445 ± 0.036
293.15 K, 101 kPa, x1 = 0.4503	4.568 ± 0.031
293.15 K, 101 kPa, x1 = 0.5003	3.813 ± 0.025
293.15 K, 101 kPa, x1 = 0.5413	3.301 ± 0.022
293.15 K, 101 kPa, x1 = 0.5988	2.777 ± 0.018
293.15 K, 101 kPa, x1 = 0.6952	2.401 ± 0.016
293.15 K, 101 kPa, x1 = 0.8031	2.264 ± 0.015
293.15 K, 101 kPa, x1 = 0.9002	2.143 ± 0.014
293.15 K, 101 kPa, x1 = 0.9508	2.121 ± 0.013
293.15 K, 101.33 kPa, x2 = 0.0923	2.519 ± 0.02
293.15 K, 101.33 kPa, x2 = 0.2349	3.38 ± 0.026
293.15 K, 101.33 kPa, x2 = 0.3267	4.07 ± 0.031
293.15 K, 101.33 kPa, x2 = 0.4103	4.91 ± 0.037
293.15 K, 101.33 kPa, x2 = 0.4957	6.008 ± 0.043
293.15 K, 101.33 kPa, x2 = 0.5486	6.84 ± 0.048
293.15 K, 101.33 kPa, x2 = 0.6451	8.722 ± 0.058
293.15 K, 101.33 kPa, x2 = 0.7319	10.9 ± 0.07
293.15 K, 101.33 kPa, x2 = 0.7782	12.29 ± 0.078
293.15 K, 101.33 kPa, x2 = 0.8336	14.04 ± 0.088
293.15 K, 101.33 kPa, x2 = 0.9075	16.88 ± 0.1
293.15 K, 101.33 kPa, x2 = 0.9556	19.08 ± 0.12
298.15 K, 101 kPa, x1 = 0.0423	15.82 ± 0.1
298.15 K, 101 kPa, x1 = 0.1127	13.26 ± 0.086
298.15 K, 101 kPa, x1 = 0.1983	10.12 ± 0.066
298.15 K, 101 kPa, x1 = 0.2953	7.192 ± 0.047
298.15 K, 101 kPa, x1 = 0.3988	4.883 ± 0.033
298.15 K, 101 kPa, x1 = 0.4532	4.022 ± 0.027
298.15 K, 101 kPa, x1 = 0.5005	3.474 ± 0.023
298.15 K, 101 kPa, x1 = 0.5429	3.085 ± 0.021
298.15 K, 101 kPa, x1 = 0.593	2.739 ± 0.018
298.15 K, 101 kPa, x1 = 0.6905	2.349 ± 0.015
298.15 K, 101 kPa, x1 = 0.8044	2.188 ± 0.014
298.15 K, 101 kPa, x1 = 0.8963	2.021 ± 0.013
298.15 K, 101 kPa, x1 = 0.9496	1.94 ± 0.012
303.15 K, 101 kPa, x1 = 0.0596	12.4 ± 0.082
303.15 K, 101 kPa, x1 = 0.1011	11.29 ± 0.075
303.15 K, 101 kPa, x1 = 0.1976	8.571 ± 0.056
303.15 K, 101 kPa, x1 = 0.3002	5.937 ± 0.04
303.15 K, 101 kPa, x1 = 0.3989	4.122 ± 0.028
303.15 K, 101 kPa, x1 = 0.4504	3.447 ± 0.023
303.15 K, 101 kPa, x1 = 0.4926	2.988 ± 0.02
303.15 K, 101 kPa, x1 = 0.5502	2.554 ± 0.017
303.15 K, 101 kPa, x1 = 0.6034	2.237 ± 0.015
303.15 K, 101 kPa, x1 = 0.7013	1.974 ± 0.013
303.15 K, 101 kPa, x1 = 0.8026	1.954 ± 0.013
303.15 K, 101 kPa, x1 = 0.8923	1.933 ± 0.012
303.15 K, 101 kPa, x1 = 0.9401	1.883 ± 0.012

CC[N+](CC)(CC)CC.[Br-] + OCCO
viscosity [mPa·s], 100 kPa
Settings	298 K	298.15 K	308 K	318 K
x1 = 0.333	–	37.5 ± 0.66	–	–
x2 = 0.75	28 ± 0.6	–	18.5 ± 0.4	13 ± 0.3

— the CheMixHub viscosity set
